Measurements: patent US20250177324A1, “A[…], AND PREPARATION METHOD THEREFOR AND USE THEREOF” (SHANGHAI ZHIGEN PHARMACEUTICAL & TECHNOLOGY CO. LTD., priority 2022, published 2025)
Counter-ions that a name gives are not always drawn.

Assay: Solid-state chemical stability under different storage conditions (liquid chromatography)
Type: physicochemical
Details: for Stability of solid state compound, 0 Days (%): liquid chromatography
Experimental: The HPLC conditions were as follows:
Configuration of test solution: appropriate amount of sample was dissolved and diluted with a diluent (0.03 mol/L phosphate buffer-acetonitrile (80:20)) to make 1 mg/mL solution.
Chromatographic conditions: according to the high performance liquid chromatography (Chinese Pharmacopoeia 2020 version of the four general 0512) test, using octadecyl-bonded silica gel (Agilent Eclipse Plus C18, 4.6 mm*250 mm, 5.0 μm, P/N for 959990-902 or a chromatographic column with equivalent performance) as a filler; 0.03 mol/L phosphate buffer (4.08 g of potassium dihydrogen phosphate was dissolved in 1000 ml of water and shaken well) was used as mobile phase A and acetonitrile as mobile phase B at a flow rate of 1 ml/min, the column temperature was 30° C., the detection wavelength was 220 nm, the injection volume was 10 ul, and the sample plate was controlled to 8° C. and running for 65 min. Gradient elution was performed according to the following table: […]
Configuration of test solution: appropriate amount of the product was dissolved and diluted with a diluent (0.1% phosphoric acid-acetonitrile (80:20)) to make 1 mg/mL solution.
Chromatographic conditions: according to the high performance liquid chromatography (Chinese Pharmacopoeia 2020 version of the four general 0512) test, using octadecyl bonded silica gel (Agilent Eclipse Plus C18, 4.6 mm*250 mm, 5.0 μm, P/N 959990-902 or a chromatographic column with equivalent performance) as a filler; 0.1% phosphate buffer (1 ml of phosphoric acid in 1000 ml of water and shake well) as mobile phase A, acetonitrile as mobile phase B, flow rate of 1 ml/min, column temperature of 30° C., detection wavelength of 220 nm, injection volume of 10 ul, running for 48 minutes. Gradient elution was performed according to the following table: […]

SMILES	Stability of solid state compound, 0 Days (%) (25° C., 60% RH)	Stability of solid state compound, 10 Days (%) (25° C., 60% RH)	Stability of solid state compound, 30 Days (%) (25° C., 60% RH)	Stability of solid state compound, 0 Days (%) (40° C., 75% RH)	Stability of solid state compound, 5 Days (%) (40° C., 75% RH)	Stability of solid state compound, 30 Days (%) (40° C., 75% RH)	Stability of solid state compound, 10 Days (%) (40° C., 75% RH)	Stability of solid state compound, 60 Days (%) (40° C., 75% RH, 60 days)
CC(=O)N[C@@]1(c2ccc(C(F)(F)F)cc2)CCC[C@](C)(O)C1=O [Compound 37, N-((1R,3S)-3-hydroxy-3-methyl-2-oxo-1-(4-(trifluoromethyl)phenyl)cyclohexyl)acetamide]	99.69%	99.65%	99.69%					
CN[C@@]1(c2ccc(C(F)(F)F)cc2)CCC[C@@H](O)C1=O.Cl [Comparative compound 8, reference compound]				98.4%	73.0%			
Cl.NC1(c2cccc(F)c2F)CCCC(O)C1=O (centres unmarked) [Comparative compound 12, reference compound]				97.16%		94.59%		
CNC1(c2cccc(OC(F)(F)F)c2F)CCCC(C)(O)C1=O.Cl (centres unmarked) [Compound 56, 2-(2-fluoro-3-(trifluoromethoxy)phenyl)-6-hydroxy-6-methyl-2-(methylamino)cyclohexan-1-one hydrochloride]				99.61%		99.50%		
CC1(O)CCCC(N)(c2cccc(F)c2F)C1=O.Cl (centres unmarked) [Compound 48, 2-amino-2-(2,3-difluorophenyl)-6-hydroxy-6-methylcyclohexan-1-one hydrochloride]				99.25%	99.28%	99.17%	99.28%	
CC1(O)CCCC(N)(c2cccc(C#N)c2)C1=O.Cl (centres unmarked) [Compound 47, 3-(1-amino-3-hydroxy-3-methyl-2-oxocyclohexyl)benzonitrile hydrochloride]				98.89%	98.86%	98.86%		
CNC1(c2c(F)cc(F)cc2F)CCCC(C)(O)C1=O.Cl (centres unmarked) [Compound 58, 2-hydroxy-2-methyl-6-methylamino-6-(2,4,6-trifluorotoluene)cyclohexan-1-one hydrochloride]				99.34%		99.14%	99.12%	
Cl.NC1(c2c(F)cc(F)cc2F)CCCC(O)C1=O (centres unmarked) [Comparative compound 13, reference compound]				98.31%		96.04%	97.05%	
CN[C@@]1(c2ccccc2Cl)CCC[C@](C)(O)C1=O.Cl [Compound 69, (2R,6S)-2-(2-chlorophenyl)-6-hydroxy-6-methyl-2-methylaminocyclohexan-1-one hydrochloride]				98.36%		98.34%	98.43%	
Cl.N[C@]1(c2ccc(C(F)(F)F)cc2)CCC[C@H](O)C1=O [Comparative compound 2, reference compound]				99.48%		94.26%	97.11%	89.97%
Cl.NC1(c2cccc(OC(F)(F)F)c2F)CCCC(O)C1=O (centres unmarked) [Comparative compound 14, reference compound]				98.58%		93.96%		
CNC1(c2cccc(OC(F)(F)F)c2)CCCC(C)(O)C1=O.Cl (centres unmarked) [Compound 67, 2-hydroxy-2-methyl-6-methylamino-6-(3-(trifluoromethoxy)phenyl)cyclohexan-1-one hydrochloride]				99.82%		99.57%	99.73%	
CN(C)[C@@]1(c2ccc(C(F)(F)F)cc2)CCC[C@@](C)(O)C1=O.Cl [Compound 72, (2R,6R)-2-dimethylamino-6-hydroxy-6-methyl-2-(4-(trifluoromethyl)phenyl)cyclohexan-1-one hydrochloride]				99.69%	99.66%	99.61%	99.62%	
CCN[C@@]1(c2ccc(C(F)(F)F)cc2)CCC[C@@H](O)C1=O.Cl [Comparative compound 9, reference compound]	98.2%	96.8%	61%					
CC1(O)CCCC(N)(c2cccc(OC(F)(F)F)c2F)C1=O (centres unmarked) [Compound 43, 2-amino-2-(2-fluoro-3-(trifluoromethoxy)phenyl)-6-hydroxy-6-methylcyclohexan-1-one hydrochloride]				98.73%		98.75%		
CN[C@@]1(c2ccccc2Cl)CCC[C@@](C)(O)C1=O.Cl [Compound 70, (2R,6R)-2-(2-chlorophenyl)-6-hydroxy-6-methyl-2-methylaminocyclohexan-1-one hydrochloride]				97.84%		97.82%	97.84%	
CNC1(c2cccc(OC(F)(F)F)c2)CCCC(O)C1=O.Cl (centres unmarked) [Comparative compound 11, reference compound]				98.15%	87.8%		75.44%	
CC(=O)N[C@@]1(c2ccc(C(F)(F)F)cc2)CCC[C@@H](O)C1=O [Comparative compound 10, reference compound]	99.77%	99.69%	97.51%					
CC1(O)CCCC(N)(c2c(F)cc(F)cc2F)C1=O (centres unmarked) [Compound 44, 2-amino-6-hydroxy-6-methyl-2-(2,4,6-trifluorotoluene)cyclohexan-1-one hydrochloride]				98.45%	98.53%	98.35%		
CN[C@@]1(c2cccc(C#N)c2)CCC[C@](C)(O)C1=O.Cl [Compound 64, 3-((1R, 3S)-3-hydroxy-3-methyl-1-methylamino-2-oxocyclohexyl)benzonitrile hydrochloride]				99.88%	99.88%	99.85%	99.89%	
CN[C@]1(c2ccc(C(F)(F)F)cc2)CCC[C@@](C)(O)C1=O.Cl [Compound 75, (2R,6S)-2-hydroxy-2-methyl-6-methylamino-6-(4-(trifluoromethyl)phenyl)cyclohexan-1-one hydrochloride]				99.85%		99.77%	99.78%	
CNC1(c2cccc(C#N)c2)CCCC(C)(O)C1=O.Cl (centres unmarked) [Compound 63, 3-(3-hydroxy-3-methyl-1-methylamino-2-oxocyclohexyl)benzonitrile hydrochloride]				99.67%	99.66%	99.66%	99.66%	
Cl.N#Cc1cccc(C2(N)CCCC(O)C2=O)c1 (centres unmarked) [Comparative compound 7, reference compound]				98.1%	87.5%			
